Measured values published in patent US5486518A, “4-indolylpiperazinyl derivatives” (American Home Products Corporation, priority 1995, dated 1996).

Target: T1, serotonin 5-HT1 A receptor (Rattus norvegicus, UniProt P19327)
T1 construct: rat hippocampal membrane homogenate; from tissue; host or cells: rat hippocampus (membrane homogenate)
T1 sequence (P19327 1-422): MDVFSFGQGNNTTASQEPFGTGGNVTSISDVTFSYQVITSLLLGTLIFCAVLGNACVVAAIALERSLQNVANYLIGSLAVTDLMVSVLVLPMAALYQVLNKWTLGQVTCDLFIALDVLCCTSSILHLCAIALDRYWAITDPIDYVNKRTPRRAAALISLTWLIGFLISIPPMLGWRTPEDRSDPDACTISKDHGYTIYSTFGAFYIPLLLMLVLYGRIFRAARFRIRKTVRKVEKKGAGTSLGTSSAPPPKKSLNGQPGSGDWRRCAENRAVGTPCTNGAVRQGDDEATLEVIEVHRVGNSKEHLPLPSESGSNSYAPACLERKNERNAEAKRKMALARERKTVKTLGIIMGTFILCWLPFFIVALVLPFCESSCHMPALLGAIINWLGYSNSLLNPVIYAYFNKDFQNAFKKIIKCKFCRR
Assay: displacement of [^3 H]8-OHDPAT from the 5-HT1 A serotonin receptors in rat hippocampal membrane homogenate
Format: binding
Source text: High affinity for the serotonin 5-HT1 A receptor was established by testing the claimed compound's ability to displace [^3 H]8-OHDPAT (dipropylaminotetralin) from the 5-HT1 A serotonin receptors in rat hippocampal membrane homogenate following the procedure of B. S. Alexander and M. D. Wood, J. Pharm. Pharmacol. 1988, 40, 888-891.

Q: `O=C(N[C@@H](CN1CCN(c2cccc3[nH]ccc23)CC1)c1ccccc1)C1CCCCC1` [Example 1] was tested. Which IC50 did it give?
A: 2 nM

Q: `CC(=O)N[C@@H](CN1CCN(c2cccc3[nH]ccc23)CC1)c1ccccc1` [Example 2] was tested. Which IC50 did it give?
A: 35.5 nM

Q: How did the IC50 turn out when `O=C(N[C@@H](CN1CCN(c2cccc3[nH]ccc23)CC1)c1ccccc1)c1ccccc1` [Example 3] was run?
A: 5 nM

Q: For `O=C(N[C@H](Cc1ccccc1)CN1CCN(c2cccc3[nH]ccc23)CC1)C1CCCCC1` [Example 4, (R)- Cyclohexane Carboxylic Acid 1-Phenylmethyl-2-[1-[4-(4-indolyl)piperazinyl]] ethylamide], which IC50 is on record?
A: 8.3 nM
